{"source": "paper PMC10349806", "about": "(Nature Communications, 2023)", "key": {"PfCRT variant F319A": {"tested_on": "PfCRT variant F319A", "test": "CQ uptake assay, oocytes expressing F319A", "assay_type": "cell-based, Plasmodium falciparum", "description": "(§1) Site-directed mutagenesis of PfCRT^Dd2 was performed as described using the megaprimer method with overlap extension[21],[54]. The primer pairs used are listed in Supplementary Table 6. Please note that a codon-optimized and oocyte-adapted version of PfCRT^Dd2 was used[22] (Supplementary Fig. 16). The resulting DNA fragment was cloned into the SP64T expression vector and verified by sequencing.\n(§2) Oocytes were obtained as described previously. Briefly, adult (>2 years old) female X. laevis frogs (NASCO) were anesthetized in a cooled solution of ethyl 3-amino benzoate methanesulfonate (0.1%, w/v), followed by a surgical removal of parts of the ovary. The ovary lobes were carefully dissected and small pieces of oocytes were incubated in Ca^2+-free ND96 buffer (96 mM NaCl, 2 mM KCl, 1 mM MgCl2 buffered with 5 mM HEPES/NaOH, pH 7.5) supplemented with collagenase D (0.1%, w/v; Roche), BSA (0.5%, w/v), and 9 mm Na2HPO4 at 18 °C for 14-16 h while gentle shaking. After incubation, the oocytes were carefully washed several times with ND96 buffer (96 mM NaCl, 2 mM KCl, 1.8 mM CaCl2, 1 mM MgCl2 buffered with 5 mM HEPES/NaOH, pH 7.5) supplemented with 100 mg l^−1 gentamycin). Defolliculated and healthy-looking stage V-VI oocytes were manually selected for RNA microinjection. The RNA was generated as following: The codon-optimized sequences of PfCRT variants were cloned into the pSP64T expression vector. After vector linearization using the restriction endonucleases BamHI or SalI (New England Biolabs), transcription was performed using the in vitro SP6 mMessage mMachine Kit (Ambion)[34]. The obtained RNA was kept at −80 °C and diluted with nuclease-free water to a concentration of 0.6 μg μl^−1. Precision-bore glass capillary tubes (3.5-inch glass capillaries; Drummond Scientific Co.) were pulled on a vertical puller (P-87 Flaming/Brown micropipette puller, Sutter Instrument Co.), graduated, and placed on a microinjector (Nanoject II Auto-Nanoliter Injector, Drummond Scientific Co.). 50 nl of nuclease-free water alone (control oocytes) or 50 nl of 0.6 μg μl^−1 RNA were injected under stereomicroscopic control. Injected oocytes were incubated for 46–72 h at 18 °C with twice-daily buffer changes before usage in experiments.\nDrug uptake assays were performed as described previously[21],[22],[24],[34]. […] The direction of radio-labeled drug transport is here from the mostly acidic extracellular solution (pH 4.5 or 6.0, as indicated) into the oocyte cytosol (pH ∼ 7.2), which corresponds to the efflux of drug from the acidic digestive vacuole (pH 5.2) into the parasite cytoplasm (pH 7.2). The topology of PfCRT in the oolemma is such that both the N- and C-terminus face the extracellular milieu[3],[22]. In the parasite, the N- and C-terminus face the lumen of the digestive vacuole. CQ uptake kinetics were performed by incubating oocytes in ND96 buffer adjusted to a pH of 4.5, 5.0, 5.5, or 6.0 and supplemented with 50 nM [^3H]CQ and one of 7 different CQ concentrations (10 µM, 50 µM, 100 µM, 200 µM, 300 µM, 400 µM, 500 µM CQ). The reaction was stopped at the 60 min time point, which is in the linear uptake range[22],[34] (Supplementary Fig. 17). […] The radioactivity of each sample was measured using a liquid scintillation analyzer Tri-Carb 4910 TR (PerkinElmer). Oocytes that were injected with water instead of RNA were analyzed in parallel, representing the uptake of a drug by diffusion and/or endogenous permeation pathways. […]"}, "PfCRT variant E271A": {"target": "T1, PfCRT variant E271A (Plasmodium falciparum, UniProt Q9N623, A220S/I356T/K76T/M74I/N326S/N75E/Q271A/R371I)", "T1 sequence (Q9N623 1-424 M74I/N75E/K76T/A220S/Q271A/N326S/I356T/R371I)": "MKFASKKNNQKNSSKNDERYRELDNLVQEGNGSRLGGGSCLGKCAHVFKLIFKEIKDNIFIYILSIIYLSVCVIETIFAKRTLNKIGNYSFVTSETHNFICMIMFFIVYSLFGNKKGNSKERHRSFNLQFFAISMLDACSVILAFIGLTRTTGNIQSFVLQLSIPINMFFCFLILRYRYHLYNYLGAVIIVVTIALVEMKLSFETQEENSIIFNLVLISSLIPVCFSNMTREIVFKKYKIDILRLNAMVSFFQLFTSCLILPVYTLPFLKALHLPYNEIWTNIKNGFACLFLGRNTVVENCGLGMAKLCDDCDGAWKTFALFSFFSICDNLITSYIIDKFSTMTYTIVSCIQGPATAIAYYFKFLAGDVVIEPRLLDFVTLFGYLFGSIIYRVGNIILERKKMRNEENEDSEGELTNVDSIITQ", "test": "CQ uptake assay, oocytes expressing E271A", "assay_type": "cell-based", "description": "as §1, §2\nDrug uptake assays were performed as described previously[21],[22],[24],[34]. […] Oocytes that were injected with water instead of RNA were analyzed in parallel, representing the uptake of a drug by diffusion and/or endogenous permeation pathways. […] The specific PfCRT-mediated uptake was determined by subtracting the corresponding background value measured in water-injected oocytes from that of PfCRT-expressing oocytes. […]"}, "[1]": {"conditions": "F319A, 50 µM CQ, 1 h, mean ± SEM"}, "[2]": {"conditions": "pH 4.5, single replicates, Fig 1d left"}, "[3]": {"conditions": "pH 6.0, single replicates, Fig 1d left"}}, "note": "Values joined by “and” are separate entries in the source; they are usually repeats but may differ in a detail not shown here. Equal entries are not always repeated.", "data": [{"smiles": "CCN(CC)CCCC(C)Nc1ccnc2cc(Cl)ccc12", "note": "(stereo not drawn) [CQ, chloroquine]", "values": [{"measurement": "Activity at pH 4.5", "setting": "PfCRT variant F319A; [1]", "result": "0.90 ± 0.25", "unit": "pmol h-1 oocyte-1"}, {"measurement": "Activity at pH 6.0", "setting": "PfCRT variant F319A; [1]", "result": "3.64 ± 0.45", "unit": "pmol h-1 oocyte-1"}, {"measurement": "R-value", "setting": "PfCRT variant F319A; F319A, CQ transport at pH 4.5 / pH 6.0", "result": "0.26 ± 0.07"}, {"measurement": "F319A transport activity pH 4.5", "setting": "PfCRT variant F319A; [2]", "result": "0.43 pmol oocyte-1 h-1 and 1.48 pmol oocyte-1 h-1 and 0.80 pmol oocyte-1 h-1"}, {"measurement": "F319A transport activity pH 6.0", "setting": "PfCRT variant F319A; [3]", "result": "4.19 pmol oocyte-1 h-1 and 3.55 pmol oocyte-1 h-1 and 3.19 pmol oocyte-1 h-1"}, {"measurement": "Activity at pH 4.5", "setting": "PfCRT variant E271A; E271A, 50 µM CQ, 1 h, mean ± SEM", "result": "1.01 ± 0.09", "unit": "pmol h-1 oocyte-1"}, {"measurement": "R-value", "setting": "PfCRT variant E271A; E271A, CQ transport at pH 4.5 / pH 6.0", "result": "0.61 ± 0.09"}, {"measurement": "E271A transport activity pH 4.5", "setting": "PfCRT variant E271A; [2]", "result": "1.17 pmol oocyte-1 h-1 and 1.13 pmol oocyte-1 h-1 and 0.65 pmol oocyte-1 h-1 and 0.98 pmol oocyte-1 h-1"}, {"measurement": "E271A transport activity pH 6.0", "setting": "PfCRT variant E271A; [3]", "result": "1.98 pmol oocyte-1 h-1 and 1.71 pmol oocyte-1 h-1 and 1.20 pmol oocyte-1 h-1 and 2.10 pmol oocyte-1 h-1 and 1.74 pmol oocyte-1 h-1"}]}]}
